From PubChem BioAssay (NCI) come the findings set out here.

Molecules are shown by their SMILES. Values joined by “and” are separate entries in the source; they are usually repeats but may differ in a detail not shown here. Equal entries are not always repeated.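 Cells were grown in 96-well plates and exposed to each compound for 48 hours at five concentrations; endpoints were interpolated linearly between bracketing concentrations, or set to the highest concentration if not reached. Abbreviation: GI50, concentration required for 50% inhibition of growth. TGI: concentration producing complete growth inhibition.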

What all share (assay): growth of human tumour cells (NCI), 48 h
For assay [1], the system named is SF-295 CNS.
For assay [2], the system named is MALME-3M melanoma.
Assay [3] concerns HT29 colon.
Assay [4] deals with OVCAR-3 ovarian.
Assay [5] concerns HOP-92 NSCLC.
Assay [6] relates to LOX IMVI melanoma.
Assay [7] relates to HCT-116 colon.
Assay [8] relates to K-562 leukemia.
For assay [9], the system named is NCI-H226 lung.
The test system of assay [10] is SR leukemia.

With `Cc1cc(N(CCC#N)CCC#N)ccc1/C=C/C(=O)Nc1ccccc1Cl`, the TGI in assay [1], in assay [2], in assay [3], in assay [4], in assay [5] and in [6] was greater than 100 µM each time. The TGI in [7], in assay [8] and in assay [9] was greater than 100 µM in each case.
With `N=C(N)SCC(=O)O`, the TGI in assay [1], in [2], in assay [3], in assay [4], in assay [5] and in [6] was greater than 100 µM throughout. Moreover, the TGI in assay [7], in assay [8] and in assay [9] was greater than 100 µM each time.
Regarding `N#CC1=C(N)Oc2c(sc3c(Br)cccc23)C1c1ccc(F)cc1` (configuration not stated), the GI50 in assay [1] was 0.234 µM; in [3], 0.367 µM; in assay [4], 0.265 µM; in assay [5], 11.5 µM; in assay [6] it was 0.695 µM; in assay [7] it was 0.409 µM. In addition, the GI50 in [10] is 0.241 µM; in [8], 0.275 µM. For the same molecule, the TGI amounted to 0.815 µM in assay [1]; 10.3 µM in assay [3]; 0.917 µM in assay [4]; 32.2 µM in [5]; 15.2 µM in assay [6]; 12.3 µM in [7]. Also, the TGI is 11.9 µM in assay [10] and 23.9 µM in assay [8].
In the case of `CC[C@H](C)[C@H](NC(=O)N[C@@H](C)c1ccccc1)C(=O)N(C)[C@H](C[C@@H](OC(C)=O)c1nc(C(=O)N[C@@H](Cc2ccccc2)C[C@H](C)C(=O)OC)cs1)C(C)C`, the GI50 in assay [1] is 25.6 µM; in [2] it was greater than 100 µM; in assay [3], 28.3 µM; in assay [4], 16.9 µM; in assay [5] it was 11.1 µM; in assay [6], 30.9 µM. For the same molecule, the GI50 in [7] is 21.8 µM; in assay [9] it was 44.1 µM. The TGI is greater than 100 µM in assay [1]; greater than 100 µM in [2]; greater than 100 µM in assay [3]; 42.2 µM in [4]; 90.5 µM in assay [5]; greater than 100 µM in [6]. The TGI in assay [7] is 68.5 µM; in assay [9] it was greater than 100 µM.
For the molecule `COc1cc2c3c(c1OC)/C(=N/OS(=O)(=O)c1ccc(C)cc1)CC3N(S(=O)(=O)c1ccc(C)cc1)CC2` (configuration not stated), the TGI in assay [1], in assay [2], in assay [3], in [4], in [5] and in assay [6] was greater than 100 µM each time. In addition, the TGI in [7], in [8] and in [9] was greater than 100 µM each time.
As for `C1=CC=C2NCCSCCNC3=CC=CC=CC3=NCCSCCN=C2C=C1`, the TGI in assay [1], in [2], in assay [3], in assay [4], in [6] and in assay [7] was greater than 100 µM in each case. For the same molecule, the TGI in assay [8] and in assay [9] was greater than 100 µM in each case.
For the molecule `Cc1cc([C@H](C)Nc2nccc(N3C(=O)OC[C@@H]3[C@H](C)F)n2)ncc1-c1ccnc(C(F)(F)F)c1`, the GI50 in assay [1] is 20.1 µM; in assay [2], 24.2 µM; in assay [3], 35.6 µM; in assay [4], 36.3 µM; in assay [5] it was 14.9 µM; in assay [6], 36.5 µM. Further, the results for the GI50 in assay [7], in assay [8] and in [9] were 22.7 µM, 37.1 µM and 30.5 µM, respectively. Besides, the TGI in assay [1], in assay [2], in assay [3], in [4], in assay [5] and in assay [6] was greater than 100 µM each time. The TGI in assay [7], in assay [8] and in assay [9] was greater than 100 µM in each case.
For the molecule `NCCNc1nc2ccccc2c2c(=O)c3cc(F)cc(Cl)c3sc12`, the GI50 in assay [1] is 1.73 µM; in assay [2], 1.83 µM; in assay [3], 1.56 µM; in assay [4] it was 1.72 µM; in [5], 1.39 µM; in assay [6], 1.66 µM. The GI50 in assay [7] is 0.694 µM; in assay [8] it was 0.261 µM; in assay [9], 9.54 µM. Further, the TGI in assay [1] turned out to be 3.18 µM; in assay [2], 3.35 µM; in assay [3], 3.3 µM; in assay [4], 3.18 µM; in assay [5] it was 3.06 µM; in [6], 3.17 µM. In addition, the TGI in assay [7] was determined as 1.99 µM; in [8], 1.03 µM; in assay [9], 31.2 µM.
`O=C(NOC(=O)c1ccc([N+](=O)[O-])cc1)c1ccc(Cl)cc1`: the TGI in assay [1], in assay [2], in assay [3], in assay [5], in [7] and in assay [10] was greater than 100 µM throughout. Also, in assay [8], the TGI was greater than 100 µM.
As to `NCCn1c2c(c3ccccc3c1=O)C(=O)c1ccccc1-2`, the GI50 in [1] was 0.315 µM; in assay [2], 0.577 µM; in assay [3] it was 0.401 µM; in assay [4], 0.681 µM; in [5], 0.626 µM; in [6] it was 0.347 µM. For the same molecule, the GI50 in assay [7] was 0.234 µM; in assay [8], 0.231 µM; in [9], 0.452 µM. In addition, the TGI in [1] came out at 1.48 µM; in assay [2] it was 3.2 µM; in assay [3], 5.22 µM; in assay [4] it was 2.53 µM; in assay [5] it was 6.24 µM; in [6], 1.78 µM. Moreover, the TGI in assay [7] was determined as 1.56 µM; in [8] it was 3.46 µM; in [9] it was 3.02 µM.
`O=c1c2ccccc2c(=O)c2c1sc1c(=O)c3ccc(O)cc3c(=O)c12`: the GI50 in assay [1] is 0.178 µM; in assay [2], 0.152 µM; in assay [3] it was 2.39 µM; in assay [4], 0.263 µM; in [7], 0.651 µM; in [10] it was 1.08 µM. Also, the GI50 in [8] was 0.715 µM. For the same molecule, the TGI was 0.361 µM in assay [1]; 0.318 µM in assay [2]; 6.01 µM in assay [3]; 0.924 µM in [4]; 3.9 µM in [7]; greater than 100 µM in assay [10]. Moreover, in [8], the TGI is greater than 100 µM.
Turning to `C=CCN(N=O)C(=O)ON1C(=O)CCC1=O`, the TGI in assay [1], in assay [2], in [3], in [4], in assay [5] and in assay [6] was greater than 100 µM throughout. In addition, the TGI in assay [7] and in assay [8] was greater than 100 µM each time.
On to `CN1CCN(CCCOc2ccc3ncnc(Nc4ccc(Oc5cccc(F)c5)c(Cl)c4)c3c2)CC1`, for which the GI50 is 1.8 µM in [1]; 1.56 µM in [2]; 1.55 µM in assay [3]; 1.61 µM in assay [4]; 0.907 µM in [5]; 1.7 µM in assay [6]. Besides, the GI50 in [7] was 1.51 µM; in assay [8], 1.19 µM. The TGI turned out to be 3.25 µM in assay [1]; 3.05 µM in [2]; 4.11 µM in assay [3]; 3.74 µM in assay [4]; 2.26 µM in assay [5]; 3.1 µM in assay [6]. Also, the TGI in assay [7] is 2.86 µM; in assay [8], 4.34 µM.
As for `Cc1cc(C)c2nccc(NCCCN(C)C)c2c1[N+](=O)[O-]`, the TGI is greater than 100 µM in [1]; 36.4 µM in assay [2]; 41.5 µM in assay [3]; greater than 100 µM in assay [4]; 51.9 µM in assay [6]; greater than 100 µM in [7]. Also, the TGI in assay [10] and in assay [8] was greater than 100 µM each time.
As for `CC(C)(C)OC(=O)n1c(Cl)c(C(=O)N=C=S)c2ccccc21`, the GI50 was 33 µM in assay [1]; greater than 100 µM in assay [3]; 25.6 µM in assay [4]; 17.2 µM in assay [5]; 29.2 µM in [6]; 55.7 µM in assay [7]. In addition, the GI50 in assay [8] was 47 µM; in assay [9], greater than 100 µM. For the same molecule, the TGI in assay [1] was greater than 100 µM; in [3], greater than 100 µM; in assay [4], 72.9 µM; in assay [5], 65.4 µM; in assay [6], greater than 100 µM; in assay [7], greater than 100 µM. In addition, the TGI in assay [8] and in assay [9] was greater than 100 µM in each case.
Regarding `CN1C(=O)CC2(C)c3cc(C=O)ccc3N(C)C12` (configuration not stated), the TGI in assay [1], in assay [2], in assay [3], in assay [4], in assay [5] and in [6] was greater than 100 µM each time. Further, the TGI in assay [7], in assay [8] and in assay [9] was greater than 100 µM in each case.
For the molecule `O=C(/C(=N/Nc1cn[nH]c(=O)c1Cl)c1ccccc1)c1ccccc1`, the TGI in assay [1] is greater than 100 µM; in assay [2], greater than 100 µM; in assay [3], 59.1 µM; in assay [4] it was 56.2 µM; in [5], greater than 100 µM; in [6], 66.9 µM. Moreover, the results for the TGI in assay [7], in [8] and in [9] were 99.1 µM, greater than 100 µM and greater than 100 µM, respectively.
Take `CCC1(Cl)C(=O)NC(=O)N(C2CC(O)C(CO)O2)C1N=[N+]=[N-]` (configuration not stated): the TGI in [1], in [2], in assay [3], in assay [4], in assay [5] and in assay [6] was greater than 100 µM throughout. The molecule further gave a TGI in [8] greater than 100 µM.
For `CC(=O)[O-].O=[N+]([O-])c1ccc([O-])c(C=NCCN=Cc2cc([N+](=O)[O-])ccc2[O-])c1.[Mn+3]`, the GI50 in assay [1] is greater than 100 µM; in assay [2] it was greater than 100 µM; in assay [3], greater than 100 µM; in [4], 63 µM; in assay [6], 75.8 µM; in assay [7], greater than 100 µM. In addition, the results for the GI50 in [8] and in assay [9] were greater than 100 µM and 89.1 µM, respectively. The TGI in [1], in assay [2], in assay [3], in assay [4], in assay [6] and in assay [7] was greater than 100 µM in each case. Further, the TGI in assay [8] and in assay [9] was greater than 100 µM in each case.
Regarding `C#CCn1cc(C=C2C(=O)NC(=S)NC2=O)c2cc(Cl)ccc21`, the GI50 in assay [1] was 1.93 µM; in [2] it was 1.98 µM; in assay [3] it was 2.21 µM; in [4] it was 1.64 µM; in assay [5], 1.92 µM; in [6], 1.65 µM. Besides, the GI50 in assay [7] was 1.86 µM; in assay [8] it was 2.85 µM; in assay [9], 2.82 µM. Besides, the TGI is 4.12 µM in [1]; 4.95 µM in [2]; 4.68 µM in [3]; 3 µM in assay [4]; 5.26 µM in assay [5]; 3.11 µM in [6]. Also, the values for the TGI in assay [7], in assay [8] and in [9] were 3.6 µM, greater than 100 µM and 8.47 µM, respectively.
`CC1(C)Oc2ccccc2N2O[C@@H]3C(=O)N(c4ccccc4)C(=O)[C@@H]3C21c1ccccc1` (some centres not stated): the TGI in [1] is 32.2 µM; in [2], 42.5 µM; in [3], 68.5 µM; in assay [4], 47 µM; in assay [7], 59.7 µM; in assay [8], greater than 100 µM. Moreover, the TGI in assay [9] is greater than 100 µM.
Regarding `COc1cc(-c2nn3c(=O)n(-c4ccc(Cl)cc4)c(=O)nc3s2)cc(OC)c1OC`, the GI50 in assay [1] is 18.2 µM; in assay [2] it was greater than 50 µM; in assay [3] it was greater than 50 µM; in assay [5], 44.4 µM; in assay [6], greater than 50 µM; in [8], 15.8 µM. In assay [9], the GI50 is greater than 50 µM. Further, the TGI in assay [1] is > 50 µM and 90.2 µM; in assay [2], greater than 100 µM; in [3], greater than 100 µM; in assay [4], greater than 100 µM; in assay [5], 50 µM and 59.7 µM; in assay [6], greater than 50 µM. The TGI in assay [7] is greater than 100 µM; in assay [8], 50 µM and > 31.6 µM; in assay [9], greater than 100 µM.
